Laboratory results reported in a compilation of properties of binary mixtures (doi:10.1016/j.jct.2022.106789).

Test: xn = mol fraction of the nth substance listed
Settings: 100 kPa

CC(C)O + CCCCCC[n+]1ccn(C)c1.O=S(=O)([O-])C(F)(F)F
x1 = 1
Settings	speed of sound [m/s]	viscosity [mPa·s]
293.15 K	1155.7	2.42
303.15 K	1120.8	1.73
313.15 K	1085.8	1.34

CCCCCC[N+](CC)(CC)CC.O=S(=O)([N-]S(=O)(=O)C(F)(F)F)C(F)(F)F + CC(C)O
Settings	speed of sound, 293.15 K [m/s]	speed of sound, 298.15 K [m/s]	speed of sound, 303.15 K [m/s]	speed of sound, 308.15 K [m/s]	speed of sound, 313.15 K [m/s]	viscosity, 293.15 K [mPa·s]	viscosity, 298.15 K [mPa·s]	viscosity, 303.15 K [mPa·s]	viscosity, 308.15 K [mPa·s]	viscosity, 313.15 K [mPa·s]
x2 = 0	1295.3	1282.7	1270.4	1258.3	1246.7	241	187	138	105	80.7
x2 = 0.096	–	1277.1	1264.8	1252.7	–	–	136	109	90	–
x2 = 0.2045	1282.6	–	1257.8	1246	1233.9	108	–	83.1	68.1	55.3
x2 = 0.3101	1273.6	–	–	1236.2	1224	74.1	–	–	49.3	41.4
x2 = 0.4056	1264	1250.9	1237.9	–	1213.3	55.3	50.3	44.3	–	30
x2 = 0.4987	1253.3	–	1226.8	–	1201.7	42.1	–	31.8	–	21.9
x2 = 0.5916	1240.8	1227.6	1214.5	–	–	30.7	25.3	20.9	–	–
x2 = 0.7088	1220.1	1206.5	1192.8	1179.4	1166	17.9	14.4	12.1	10.4	9.33
x2 = 0.8015	1198	1184	1170.3	–	1142.5	11.2	8.83	7.01	–	4.94
x2 = 0.9193	1167	1151.8	1136.7	–	1106.5	5.24	4.36	3.67	–	2.38
x2 = 0.9503	1161	–	–	–	–	–	–	–	–	–

CCCCCC[n+]1ccn(C)c1.O=S(=O)([O-])C(F)(F)F + CC(C)O
Settings	speed of sound, 293.15 K [m/s]	speed of sound, 298.15 K [m/s]	speed of sound, 303.15 K [m/s]	speed of sound, 308.15 K [m/s]	speed of sound, 313.15 K [m/s]	viscosity, 293.15 K [mPa·s]	viscosity, 298.15 K [mPa·s]	viscosity, 303.15 K [mPa·s]	viscosity, 308.15 K [mPa·s]	viscosity, 313.15 K [mPa·s]
x2 = 0	1376.7	1364.8	1353.2	1342.1	1330.9	195	151	116	91.1	74
x2 = 0.1282	1366.5	–	1343	1331.5	1319.9	129	–	80	61.9	51.6
x2 = 0.2454	1353	–	1329.3	1316.1	1305.8	87.1	–	57.5	44.6	37.2
x2 = 0.3506	1338.3	1326	–	1301	1290.9	60	48.3	–	31.8	27
x2 = 0.469	1319.3	–	1294	1281.8	1270.2	37.8	–	27.2	21	18
x2 = 0.5728	1299.1	1286	1273.8	1260.3	1247.8	24.5	20.4	17.1	14.2	11.9
x2 = 0.6564	1280	1266.1	1253.7	1240.2	1227.4	16.1	13.6	11.3	9.6	8.4
x2 = 0.7574	1251.3	1237.2	1223.1	1209.3	1195.7	9.63	8.06	6.67	5.85	5.11
x2 = 0.8422	1221.4	1207.1	1192.8	1178.4	1163.3	5.86	4.82	4.21	3.59	3.13
x2 = 0.9231	–	1175.5	1159.6	1142.7	–	–	3.15	2.68	2.34	–

CC(C)O + CCCCCC[N+](CC)(CC)CC.O=S(=O)([N-]S(=O)(=O)C(F)(F)F)C(F)(F)F
x1 = 1
Settings	speed of sound [m/s]	viscosity [mPa·s]
293.15 K	1155.7	2.42
313.15 K	1085.8	1.34
